Results as given in PubChem BioAssay AID1996.
Values after ≈ are worked out from the molar mass of the structure shown.

settings: buffer; pH 7.4; 200.0 µM

Compound | solubility kinetic [mg/mL]
N#Cc1ccsc1NC(=O)c1cccc([N+](=O)[O-])c1 | 0.0042 (≈ 15.4 µM)
Cc1cc(C(=O)Nc2sccc2C(N)=O)c(C)o1 | 0.0271 (≈ 103 µM)
C=CCC(O)(CC=C)C(C)N.Cl (stereo unspecified) | > 0.0288
CCCCN(CCO)c1ncnc2sc(-c3ccccc3)cc12 | < 0.0002
CCOc1cccc(C(=O)NC(=S)Nc2ccc3c(c2)OCCO3)c1 | 0.004 (≈ 11.2 µM)
CCCC(CCC(=O)Nc1cccc([N+](=O)[O-])c1)C(=O)O (stereo unspecified) | > 0.0441
Cc1nc(Cl)c(Cl)n1CCOc1ccccc1 | > 0.0407
Cc1occc1C(=O)Nc1cnn(CCCC(=O)O)c1 | > 0.0416
CC(=O)N1CCN(C(=O)c2ccc(C)c(S(=O)(=O)N3CCCCC3)c2)CC1 | > 0.059
Nc1ccc(Oc2c(Cl)cccc2Cl)nc1 | > 0.0383
COC(=O)CSC(=S)N1CCCC(C)C1 (stereo unspecified) | > 0.0371
Cc1c(C)c2ccc(OCC(=O)N3CCOCC3)c(C)c2oc1=O | > 0.0497
O=C(CNC(=O)C1CCCCC1)NC1CCCCC1 | > 0.04
Cc1cccc(N2C(=O)c3ccc(Br)cc3C2=O)n1 | > 0.0476
C=CCNc1ccc(N2C(=O)CCCC2=O)cc1[N+](=O)[O-] | > 0.0434
Cc1cc2c(=O)n(C)c(SCC(=O)Nc3cccc(F)c3)nc2s1 | < 0.0003
O=C(CN1CCOCC1)Nc1nc(-c2ccc(Cl)cc2)cs1 | > 0.0507
COc1cc(C(=O)Nc2cc(OC)c(OC)c(OC)c2)ccc1OCc1c(C)noc1C | 0.0029 (≈ 6.55 µM)
O=C(N/C(=C\c1ccco1)C(=O)N1CCCCC1)c1ccc([N+](=O)[O-])cc1 | 0.0036 (≈ 9.75 µM)
O=C(Nc1nc2c(Cl)cccc2s1)C1CC1 | 0.0013 (≈ 5.14 µM)

Compound | solubility kinetic [mg/mL]
COc1ccc2c(c1)c(C(C)=O)c(C)n2Cc1ccco1 | 0.0367 (≈ 130 µM)
COc1cccc(NC(=O)NCCN2CCCCC2)c1 | 0.0378 (≈ 136 µM)
N#Cc1ccccc1OCC(=O)OCC(=O)N1CCCC1 | > 0.0432
CCC1Oc2ccc(C)cc2N(CC(=O)NCC2CCCO2)C1=O (stereo unspecified) | 0.0436 (≈ 131 µM)
Cc1ccc(-c2csc(NS(=O)(=O)c3cccc(F)c3)n2)o1 | > 0.0508
Cn1c(SCC(=O)Nc2nccs2)nnc1C1CC1 | > 0.0443
O=S(=O)(c1ccc(Cl)s1)N1CCCCC1 | 0.022 (≈ 82.8 µM)
O=C(CN1c2cccc3cccc(c23)S1(=O)=O)N1CCCCC1 | > 0.0496
COc1cc(/C=C2\SC(N3CCC(C)CC3)=NC2=O)ccc1O | > 0.0499
CC(C)COc1nc2ccccc2nc1N1CCN(C)CC1 | 0.0339 (≈ 113 µM)
CC(C)N1CCN(C2CSCCSC2)CC1CCO (stereo unspecified) | 0.0427 (≈ 140 µM)
O=C(C1CCC1)N1CCN(c2ccc(Cl)cc2)CC1 | 0.0364 (≈ 131 µM)
O=C(CSc1nncs1)NC1CCCCCCC1 | > 0.0428
CC1CCCN(S(=O)(=O)c2cccc(C(=O)NCC3CCCO3)c2)C1 (stereo unspecified) | > 0.055
COc1cccc(NC(=S)Nc2ccc(Br)cc2Cl)c1 | 0.0046 (≈ 12.4 µM)
O=C(Nc1cc(Cl)ccc1Cl)C1CCCO1 (stereo unspecified) | 0.0289 (≈ 111 µM)
CCOC(=O)C(O)(c1ccc(NC(=O)NC)cc1)C(F)(F)F (stereo unspecified) | > 0.048
O=C(CCC(=O)Nc1ccccc1Cl)NN=C1CCCC1 | > 0.0462
CC(=O)N(Cc1cccs1)Cc1cc2cc(C)c(C)cc2nc1Cl | 0.0043 (≈ 12 µM)
CCCN1C(=O)/C(=C2/C=Cc3ccccc3N2CC)SC1=S | < 0.0004

Compound | solubility kinetic [mg/mL]
O=S(=O)(Nc1ncccn1)c1ccc(F)cc1 | > 0.038
CCCCc1c(C)nc(N2CCCC2)[nH]c1=O | > 0.0353
COc1ccc(C2NC(=O)CCC2[N+](=O)[O-])c(OC)c1OC (stereo unspecified) | > 0.0465
COc1ccc(Cl)cc1C(=O)NC1=NCCS1 | 0.0386 (≈ 143 µM)
CNn1cnc2ccsc2c1=O | > 0.0272
CCCc1cnc(N2CCN(S(=O)(=O)c3cccs3)CC2)nc1 | < 0.0002
Cc1cc(C)c2c(N)c(C(=O)c3ccc(Br)cc3)oc2n1 | 0.0012 (≈ 3.48 µM)
CCCc1nnc(SCC(=O)Nc2cc(C)on2)n1CCOC | > 0.0509
CSc1ncccc1C(=O)NCC1CCCCC1 | 0.0384 (≈ 145 µM)
CC(=O)N[C@@H](CC(=O)O)C(=O)O | > 0.0263
COc1cccc(N2CCN(c3nc(C)cc(=O)[nH]3)CC2)c1 | 0.0446 (≈ 148 µM)
Cc1nc2c(C#N)c[nH]n2c(=O)c1CCO | > 0.0327
Cc1ccsc1C(=O)OCC(=O)NC1CC1 | > 0.0359
COc1ccc2[nH]cc(CCNC(=O)CCC3CCCCC3)c2c1 | 0.0299 (≈ 91 µM)
Cc1cc(NC(=O)COC(=O)C2CCC(=O)N2)c([N+](=O)[O-])cc1C (stereo unspecified) | > 0.0503
COc1ccc(-c2ccnc(-c3ccncc3)n2)cc1 | > 0.0395
COc1c(Cl)cc(C(=O)NCc2ccco2)cc1Cl | 0.0402 (≈ 134 µM)
Cc1ccc2c(COC(=O)C3CC(=O)N(c4ccc5c(c4)OCCO5)C3)cc(=O)oc2c1 (stereo unspecified) | 0.0196 (≈ 45 µM)

Next, values leading:

solubility kinetic [mg/mL] | Compound
> 0.0485 | CN1CCN(c2ccccc2/C=N/NC(=O)c2cccnc2)CC1
0.0418 (≈ 146 µM) | CC#CC(=O)N1CCC(CO)(CCc2ccccc2)CC1
> 0.0405 | Cc1ccccc1C(=O)OC1CCN(C)CC1.Cl
0.0452 (≈ 141 µM) | Cc1ccc(C2=NOC3(CC(=O)N(c4ccccc4)C3=O)C2)cc1 (stereo unspecified)
> 0.0415 | Cc1ccc(NC(=O)C[n+]2ccccc2)cc1C.[Cl-]
0.0093 (≈ 31.6 µM) | Cc1cc(C(=O)NCc2ccccc2F)c2ccccc2n1
0.0335 (≈ 135 µM) | O=C(Nc1ccncc1)Nc1ccccc1Cl
0.0254 (≈ 106 µM) | O=C(C#Cc1ccccc1)Nc1ccccc1F
> 0.0731 | COc1ccc(C2(c3ccc(OC)cc3)NC(=O)N(CC(=O)NC3CCS(=O)(=O)C3)C2=O)cc1 (stereo unspecified)
0.001 (≈ 2.92 µM) | COc1ccc(OCCN2C(=O)c3ccccc3C2=O)c([N+](=O)[O-])c1
0.0323 (≈ 121 µM) | O=C(c1nc2ccccc2[nH]1)c1ccccc1[N+](=O)[O-]
0.0445 (≈ 136 µM) | Nc1nccnc1C(=O)OCC(=O)NC1CCCc2ccccc21 (stereo unspecified)
> 0.0384 | COc1ccc2ccccc2c1-c1csc(N)n1
> 0.0478 | CCN1CCN(c2nnc(-c3ccccc3)c3ccccc23)CC1
0.0041 (≈ 11.6 µM) | Cc1cccc(C)c1NC(=S)NC(=O)c1ccc(Br)o1
> 0.0468 | COc1ccc(C2(c3ccc(OC)cc3)NC(=O)NC2=O)cc1
> 0.03 | O=C(O)/C=C/c1cnc2ccccc2n1
0.008 (≈ 29.9 µM) | O=[N+]([O-])c1ccc2c(c1)ncn2CCc1ccccc1
> 0.0371 | Cc1cc(SC(C)C(=O)O)nc2ccccc12 (stereo unspecified)
0.0135 (≈ 46.8 µM) | CCCCOC(=O)C1=C(C)NC(=O)NC1c1ccccc1 (stereo unspecified)
0.0009 (≈ 2.78 µM) | C=CCOC(=O)c1ccc(N2CCN(c3ccccc3)CC2)nc1

solubility kinetic [mg/mL] | Compound
0.0028 (≈ 9.54 µM) | CC(C)(C)NC(=O)C1CC1(c1ccccc1)c1ccccc1 (stereo unspecified)
> 0.0402 | COn1c(=O)c(-c2ccccc2)[n+]([O-])c2ccccc21
0.042 (≈ 133 µM) | CCNC(=S)Nc1cccc(NC(=O)c2ccccc2O)c1
> 0.0491 | Cc1ccc(C23CC4CC(CC(C(=O)NCC(=O)O)(C4)C2)C3)cc1
0.0014 (≈ 3.92 µM) | COC(=O)CCc1nc2cc(Cl)ccc2n(Cc2ccccc2)c1=O
> 0.0557 | CC(C)(C)c1ccc(C(CC(=O)O)NC(=O)CSc2ccccc2)cc1 (stereo unspecified)
> 0.0737 | Cc1ccc([N+](=O)[O-])cc1S(=O)(=O)Nc1cccc(S(=O)(=O)Nc2ccccc2C(=O)O)c1
> 0.0419 | Cc1ccc(NC(=O)CCc2c[nH]c3ccccc23)nc1
0.0056 (≈ 17.6 µM) | COc1cccc(-c2cc(C(=O)NC3CC3)c3ccccc3n2)c1
< 0.0003 | Cc1cc(C)cc(NC(=O)Nc2ccc3c(c2)CCC3)c1
> 0.0315 | O=C(NC1CC1)C(Cl)c1ccccc1 (stereo unspecified)
0.0559 (≈ 142 µM) | CC1CCN(C(=O)COc2cccc3c2CCN(Cc2ccccc2)C3=O)CC1
> 0.0383 | Cc1ccc(C(=O)NCc2nc3ccccc3[nH]2)o1
0.0218 (≈ 85.1 µM) | Cc1cccc(C)c1OCC(=O)Nc1ccncc1
0.0003 (≈ 0.844 µM) | CCc1ccc(NC(=S)N2CCN(c3cccc(OC)c3)CC2)cc1
0.0337 (≈ 91.5 µM) | CCN(C(=O)COC(=O)c1ccc([N+](=O)[O-])o1)c1cccc2ccccc12
> 0.049 | CCOc1ccccc1NC(=O)C1CCN(S(C)(=O)=O)CC1
0.0027 (≈ 9.36 µM) | O=C(CCc1ccccc1)NC(=S)NCc1ccco1
> 0.0342 | O=C(COc1ccccc1)Nc1ccncc1
> 0.0484 | CCC(C)N1C(=O)CCC1C(=O)NCCc1ccc(Cl)cc1 (stereo unspecified)
0.0077 (≈ 20.9 µM) | CN(CC(=O)Nc1ccc(OC(F)(F)F)cc1)C(=O)/C=C/c1ccco1

solubility kinetic [mg/mL] | Compound
> 0.0491 | CC(C)(CC(=O)O)CC(=O)Nc1ccccc1Oc1ccccc1
0.022 (≈ 69.1 µM) | CCC(C)[C@H](NC(=O)NC1CCCc2ccccc21)C(=O)OC (stereo partly specified)
> 0.0426 | C/C(=N\NC(=O)c1cccc([N+](=O)[O-])c1)c1ccncc1
0.0161 (≈ 56.8 µM) | CCc1ccc(NC(=O)C(=O)NCc2ccccn2)cc1
0.0257 (≈ 86.4 µM) | Nc1ccc2nc(-c3ccccc3)c(-c3ccccc3)nc2c1
> 0.0429 | CCc1ccc(Nc2ccc(C(=O)O)cc2[N+](=O)[O-])cc1
0.0007 (≈ 1.99 µM) | COc1cc(NC(=O)C(C)C)ccc1NC(=O)c1cc2ccccc2o1
< 0.0002 | Cc1ccc(C(=O)O/N=C(\N)c2ccccn2)cc1Cl
> 0.0508 | Cn1c(Cc2ccccc2)nnc1SCC(=O)Nc1ccccc1
0.0028 (≈ 8.71 µM) | Cc1cc(CNC(=O)c2cccc([N+](=O)[O-])c2)c2ccccc2n1
0.0006 (≈ 2.02 µM) | Cc1cccc(NC(=O)/C(C#N)=C/c2ccc(Cl)cc2)n1
0.0398 (≈ 143 µM) | Cc1cc(=O)cc(C)n1-c1ccccc1Br
0.0517 (≈ 149 µM) | O=C(NC1CCN(CCc2c[nH]c3ccccc23)CC1)c1ccccc1
0.0576 (≈ 142 µM) | O=C(CCCOc1ccccc1)Nc1cccc(S(=O)(=O)N2CCOCC2)c1
> 0.043 | Cc1ccccc1N1CC(C(=O)NC2CCCC2)CC1=O (stereo unspecified)
0.0004 (≈ 1.28 µM) | Cc1ccc(C(=O)COc2ncnc3cc(Cl)ccc23)cc1
> 0.0497 | COc1cc(C(=O)NCCOc2ccccc2)cc(OC)c1OC
0.0144 (≈ 52.3 µM) | COc1ccccc1C(=O)CSc1cccc[n+]1[O-]
0.0013 (≈ 3.28 µM) | O=C(Nc1cccc(NC(=O)c2ccccc2[N+](=O)[O-])c1)c1ccccc1Cl
0.039 (≈ 128 µM) | CC1CN(CC(=O)Nc2nc3ccccc3s2)CC(C)O1 (stereo unspecified)
0.0057 (≈ 19.6 µM) | CC(=O)c1sc(NC(=O)COc2ccccc2)nc1C
